Reference: patent publication US20250170127A1, “RE-SENSITIZING MULTIDRUG-RESISTANT (MDR) GRAM-NEGATIVE BACTERIA TO COLISTIN USING IONOPHORES” (The Regents of the University of Colorado, a body corporate, priority 2022, published 2025)

Columns and labels:
E. coli AR-0493 [1] = assay: MIC, CLSI broth microdilution, substance alone; format: cell-based
Protocol: A MDR E. coli strain AR-0493 (a.k.a., ATCC BAA-3170) was obtained from the CDC and FDA Antibiotic Resistance Bank and used for the initial screen. […] Considering the difficulties on the discovery of novel antimicrobial reagents against Gram-negative bacteria, we chose to screen the fragment-based library of 3,200 compounds from TimTec (Tampa, FL). […] The screen used a modified broth microdilution assay.
These 10 compounds were tested for their MICs and minimum re-sensitizing concentrations (MRCs) in the presence colistin at 2 μg/mL in E. coli AR-0493. […] To evaluate their toxicity in mammalian cells, the present inventors treated human epithelial adenocarcinoma HeLa cells with each compound at a wide range of concentrations. […]
(§1) General Methods. MDR strains E. coli AR-0493, AR-0346, and AR-0538, Salmonella Enteritidis AR-0496, Salmonella Typhimurium AR-0635, K. pneumoniae AR-0497, A. baumannii AR-0300 and AR-0310 were all obtained from the CDC & FDA Antibiotic Resistance Isolate Bank. E. coli K-12 was a gift from the Copley lab (Department of MCD Biology, University of Colorado Boulder). HeLa cells were purchased from the ATCC. All bacterial strains were grown on trypticase soy agar supplemented with 5% sheep blood (BAP). Bacteria were then cultured in Luria-Bertani (LB) medium at 35° C. until they achieve the log phase before screening or antimicrobial testing using CAMHB media. MIC, MRC, and checkerboard analyses and mammalian growth inhibition analyses in Hela cells were performed as described previously. More details are given in Supporting information.

mitochondria = conditions: previously reported; in vitro and in mice; cited from earlier work
E. coli AR-0493 [2] = assay: Minimum re-sensitizing concentration (MRC) in the presence of colistin; format: cell-based; conditions: in the presence of 2 μg/mL colistin, E. coli AR-0493
Protocol: These 10 compounds were tested for their MICs and minimum re-sensitizing concentrations (MRCs) in the presence colistin at 2 μg/mL in E. coli AR-0493.
The present inventors further conducted MRC screens of selected compounds from groups 2-5 in AR-0493. Compound were tested against AR-0493 with compound X+2 μg/mL Colistin.
All compounds were tested for their respective minimum resensitizing concentrations (MRCs) for colistin against E. coli. AR0493, a MDR strain from CDC and FDA Antibiotic Resistance Bank. […] For the symmetrical bisanilino series, 7a-p, electron-donating alkyl and alkoxy groups (entries 7a-g, Table 5) at various positions of the phenyl rings were investigated. […] Three asymmetric bisanilino analogs (7q-s, Table 5) were synthesized based on the SARs of the monoanilino analogs 8a-p (vide infra).
as §1

HeLa cells = assay: in vitro; format: cell-based, human
Protocol: These 10 compounds were tested for their MICs and minimum re-sensitizing concentrations (MRCs) in the presence colistin at 2 μg/mL in E. coli AR-0493. […] To evaluate their toxicity in mammalian cells, the present inventors treated human epithelial adenocarcinoma HeLa cells with each compound at a wide range of concentrations.
(§2) To evaluate the mammalian toxicity of these analogs, Applicants tested them in cell viability assay using human cervical adenocarcinoma HeLa cells. Their respective half maximal growth inhibition concentration (GI50) was calculated using KaleidaGraph. The selectivity index (SI) for each compound was also calculated as the ratio of their GI50 and MRC. […] Therefore, Applicants selected two bisanilino analogs, 7l and 7m, that bear chlorines at the meta- and para-positions, respectively, of the phenyl groups for further characterization studies. […]. […] Their mammalian toxicities were also evaluated, and SIs calculated. […] Applicants we next explored the scope of analogs 71 and 7m their colistin-potentiating activity in 8 different MDR Gram negative bacteria with diverse genetic backgrounds and resistance mechanisms (Table 7). All strains were obtained from CDC and FDA Antibiotic Resistance Bank. For example, E. coli AR-0493 and K. pneumoniae AR-0497 carry the plasmid that contains the most prevalent mcr-1 gene. E. coli AR-0538, Salmonella Typhimurium AR-0539 and AR-0635 contain the mcr-2, 3, and 4 genes, respectively. These genes encode the phosphoethanolamine transferase, which was originated form the chromosome of A. baumannii, such as AR-0310. […]. A. baumannii AR-0310 appears more sensitive to these two compounds and the MICs of colistin was reduced to 0.25 μg/mL.
as §1

E. coli AR-0349 = assay: MICs of a panel of 9 antibiotics with and without compound 3; format: cell-based
P. aeruginosa AR-0768 = assay: Colistin MIC in the absence or presence of RMA compound; format: cell-based; conditions: colistin alone
Text: (§3) To investigate the scope of the colistin-potentiation effect of compound 3, the present inventors screened a panel of MDR Gram-negative bacteria obtained from the CDC and FDA Antibiotic Resistance Bank. These include a variety of Enterobacteriaceae spp., such as E. coli AR-0346 and AR-0538, K. pneumoniae AR-0497, Salmonella Enteritidis AR-0496, and Salmonella Typhimurium AR-0635. These strains all express the mcr genes (e.g., mcr-1, mcr-2, and mcr-4) and are resistant to colistin with its MICs of 8-16 μg/mL (Table 2). […] The only exception is Salmonella Typhimurium AR-0635, which expresses mcr-4 gene. […]. […]. Furthermore, the present inventors also tested the activity of colistin in the presence or absence of 1 μg/mL compound 3 in a wild-type E. coli K-12. […] The MICs of compound 3 in all these strains were >64 μg/mL, the highest concentration tested.

[3] = system: Salmonella Typhimurium AR-0539; assay: as above; format: cell-based; conditions: for Colistin MIC (+ compound): in the presence of 1 μg/mL of compound indicated, S. Typhimurium AR-0539
Protocol: as §2

P. aeruginosa AR-0257 = assay: as above; format: cell-based; conditions: for fold reduction of colistin MIC: 1 μg/mL of compound; for Colistin MIC (+ compound): in the presence of 1 μg/mL of compound indicated
Protocol: as §2

P. aeruginosa AR-0239 = assay: as above; format: cell-based; conditions: for fold reduction of colistin MIC: 1 μg/mL of compound; for Colistin MIC (+ compound): in the presence of 1 μg/mL of compound indicated
Protocol: as §2

A. baumannii AR-0300 = assay: as above; format: cell-based; conditions: colistin alone
Text: as §3, §1

[4] = system: Salmonella Enteritidis AR-0496; assay: as above; format: cell-based; conditions: colistin alone; Salmonella Enteritidis AR-0496, mcr-1
Text: as §3, §1

E. coli AR-0346 = assay: as above; format: cell-based; conditions: colistin alone; E. coli AR-0346, mcr-1
Text: as §3, §1

E. coli K-12 = assay: as above; format: cell-based; conditions: colistin alone; wild-type E. coli K-12
Text: as §3, §1

E. coli AR-0493 [5] = assay: as above; format: cell-based; conditions: for Colistin MIC: colistin alone, E. coli AR-0493, mcr-1; for Colistin MIC (+ compound): in the presence of 1 μg/mL of compound indicated, E. coli AR-0493
Text: as §3, §2, §1

E. coli AR-0538 = assay: as above; format: cell-based; conditions: for Colistin MIC: colistin alone, E. coli AR-0538, mcr-2; for Colistin MIC (+ compound): in the presence of 1 μg/mL of compound indicated, E. coli AR-0538
Text: as §3, §2, §1

K. pneumoniae AR-0497 = assay: as above; format: cell-based; conditions: for Colistin MIC: colistin alone, K. pneumoniae AR-0497, mcr-1; for Colistin MIC (+ compound): in the presence of 1 μg/mL of compound indicated, K. pneumoniae AR-0497
Text: as §3, §2, §1

[6] = system: Salmonella Typhimurium AR-0635; assay: as above; format: cell-based; conditions: for Colistin MIC: colistin alone; for Colistin MIC (+ compound): in the presence of 1 μg/mL of compound indicated, S. Typhimurium AR-0635
Text: as §3, §2, §1

A. baumannii AR-0310 = assay: as above; format: cell-based; conditions: for Colistin MIC: colistin alone; for Colistin MIC (+ compound): in the presence of 1 μg/mL of compound indicated
Text: as §3, §2, §1

[7] = system: MDR Gram-negative bacteria; assay: MICs across a panel of MDR Gram-negative bacteria (summary statements); format: cell-based; conditions: colistin alone
Text: as §3, §2, §1

## FC(F)(F)Oc1ccc(Nc2nc3nonc3nc2Nc2ccc(OC(F)(F)F)cc2)cc1 [Compound 7p]
E. coli AR-0493 [1]
  MIC: >64 µg/mL
mitochondria
  mitochondrial uncoupler activity: poor uncoupler
E. coli AR-0493 [2]; listed as 57p
  MRC (minimum re-sensitizing concentration): 0.25 µg/mL
HeLa cells
  GI50: 5.7 µg/mL

## Colistin [reference compound]
E. coli AR-0349; CLSI 2021, M100, Ed 31
  INT (S-R interpretation): R
E. coli AR-0349; antibiotic alone, multidrug-resistant E. coli
  MIC: 16 µg/mL
E. coli AR-0349; by 1 μg/mL of compound 3
  fold of potentiation: 16 fold
E. coli AR-0349; in the presence of 1 μg/mL of compound 3
  MIC (+3): 1 µg/mL
P. aeruginosa AR-0768
  Colistin MIC: 16 µg/mL
[3]; colistin alone, S. Typhimurium AR-0539, mcr-3
  Colistin MIC: 8 µg/mL
P. aeruginosa AR-0257; colistin alone
  Colistin MIC: 8 µg/mL
P. aeruginosa AR-0239; colistin alone
  Colistin MIC: 4 µg/mL
A. baumannii AR-0300
  Colistin MIC: 8 µg/mL
[4]
  Colistin MIC: 16 µg/mL
E. coli AR-0346
  Colistin MIC: 8 µg/mL
E. coli K-12
  Colistin MIC: 0.25 µg/mL
E. coli AR-0493 [5]; Table 2
  Colistin MIC: 16 µg/mL
E. coli AR-0493 [5]; Table 7
  Colistin MIC: 8 µg/mL
E. coli AR-0538; Table 2
  Colistin MIC: 8 µg/mL
E. coli AR-0538; Table 7
  Colistin MIC: 8 µg/mL
K. pneumoniae AR-0497; Table 2
  Colistin MIC: 8 µg/mL
K. pneumoniae AR-0497; Table 7
  Colistin MIC: 8 µg/mL
[6]; S. Typhimurium AR-0635, mcr-4, Table 7
  Colistin MIC: 32 µg/mL
[6]; Salmonella Typhimurium AR-0635, mcr-4, Table 2
  Colistin MIC: 16 µg/mL
A. baumannii AR-0310; Table 2
  Colistin MIC: 16 µg/mL
A. baumannii AR-0310; Table 7
  Colistin MIC: 32 µg/mL
E. coli AR-0493 [1]
  MIC: 16 µg/mL
[7]; 8 MDR Gram negative strains of Table 7
  Colistin MIC: 4 to 32 µg/mL
[7]; mcr-expressing Enterobacteriaceae strains of Table 2
  Colistin MIC: 8 to 16 µg/mL

## Clc1cccc(Nc2nc3nonc3nc2Nc2cccc(Cl)c2)c1 [Compound 7l]
[3]
  Colistin MIC (+ compound): 1 µg/mL
P. aeruginosa AR-0257
  fold reduction of colistin MIC: 4 folds
  Colistin MIC (+ compound): 2 µg/mL
P. aeruginosa AR-0239
  fold reduction of colistin MIC: 4 folds
  Colistin MIC (+ compound): 1 µg/mL
E. coli AR-0493 [5]
  Colistin MIC (+ compound): 1 µg/mL
E. coli AR-0538
  Colistin MIC (+ compound): 1 µg/mL
K. pneumoniae AR-0497
  Colistin MIC (+ compound): 1 µg/mL
[6]
  Colistin MIC (+ compound): 1 µg/mL
A. baumannii AR-0310
  Colistin MIC (+ compound): 0.25 µg/mL
E. coli AR-0493 [1]
  MIC: >64 µg/mL
E. coli AR-0493 [2]
  MRC (minimum re-sensitizing concentration): 0.25 µg/mL
HeLa cells
  GI50: 1.1 µg/mL

## Oc1nc2nonc2nc1Nc1ccc(OC(F)(F)F)cc1 [Compound 8p]
mitochondria
  mitochondrial uncoupler activity: one of the most potent uncouplers

## Clc1ccc(Nc2nc3nonc3nc2Nc2ccc(Cl)cc2)cc1 [Compound 7m]
[3]
  Colistin MIC (+ compound): 2 µg/mL
P. aeruginosa AR-0257
  fold reduction of colistin MIC: 4 folds
  Colistin MIC (+ compound): 2 µg/mL
P. aeruginosa AR-0239
  fold reduction of colistin MIC: 4 folds
  Colistin MIC (+ compound): 1 µg/mL
E. coli AR-0493 [5]
  Colistin MIC (+ compound): 1 µg/mL
E. coli AR-0538
  Colistin MIC (+ compound): 2 µg/mL
K. pneumoniae AR-0497
  Colistin MIC (+ compound): 1 µg/mL
[6]
  Colistin MIC (+ compound): 1 µg/mL
A. baumannii AR-0310
  Colistin MIC (+ compound): 0.25 µg/mL
E. coli AR-0493 [1]
  MIC: >64 µg/mL
E. coli AR-0493 [2]
  MRC (minimum re-sensitizing concentration): 0.5 µg/mL
HeLa cells
  GI50: 2.8 µg/mL
